Source: ChEMBL document CHEMBL3822357, “New Atglistatin closely related analogues: Synthesis and structure-activity relationship towards adipose triglyceride lipase inhibition” (Eur J Med Chem, 2016)
The source made the active and inactive calls. The rule behind the calls is not given here.

Experiments:
[1] = molecular target: T1, Patatin-like phospholipase domain-containing protein 2 (Mus musculus) (UniProt Q8BJ56); assay: Inhibition of ATGL in mouse 3T3L1 cells assessed as inhibition of isoproterenol-stimulated lipolysis by measuring reduction in non-esterified fatty acid release in media at 20 uM preincubated for 4 hrs followed by isoproterenol addition measured after 1 hr by colorimetric assay; type: cell-based; conditions: 3T3-L1
T1 sequence (whole entry): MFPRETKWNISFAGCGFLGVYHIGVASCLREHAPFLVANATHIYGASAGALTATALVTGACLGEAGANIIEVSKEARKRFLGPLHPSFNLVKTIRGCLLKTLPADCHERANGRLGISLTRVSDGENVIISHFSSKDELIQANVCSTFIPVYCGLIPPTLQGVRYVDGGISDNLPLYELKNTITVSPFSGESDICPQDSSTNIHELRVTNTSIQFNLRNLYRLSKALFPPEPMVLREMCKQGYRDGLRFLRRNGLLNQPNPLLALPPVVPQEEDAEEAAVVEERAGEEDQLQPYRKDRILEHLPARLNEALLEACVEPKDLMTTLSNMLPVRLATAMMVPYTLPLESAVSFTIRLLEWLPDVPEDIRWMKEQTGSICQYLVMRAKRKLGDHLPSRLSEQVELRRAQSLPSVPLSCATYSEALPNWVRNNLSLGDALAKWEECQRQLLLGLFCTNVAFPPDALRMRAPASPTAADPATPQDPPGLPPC

[2] = molecular target: T1, Patatin-like phospholipase domain-containing protein 2 (Mus musculus); assay: Inhibition of ATGL in mouse 3T3L1 cells assessed as inhibition of isoproterenol-stimulated lipolysis by measuring reduction in glycerol release in media at 20 uM preincubated for 4 hrs followed by isoproterenol addition measured after 1 hr by colorimetric assay; type: cell-based; conditions: 3T3-L1
[3] = molecular target: T2, Patatin-like phospholipase domain-containing protein 2 (Homo sapiens, UniProt Q96AD5); assay: Inhibition of ATGL (unknown origin) overexpressed in Escherichia coli XL-1 cells using [9,10-3H(N)]triolein as substrate incubated for 60 mins by liquid scintillation counting method
T2 sequence (Q96AD5 whole entry): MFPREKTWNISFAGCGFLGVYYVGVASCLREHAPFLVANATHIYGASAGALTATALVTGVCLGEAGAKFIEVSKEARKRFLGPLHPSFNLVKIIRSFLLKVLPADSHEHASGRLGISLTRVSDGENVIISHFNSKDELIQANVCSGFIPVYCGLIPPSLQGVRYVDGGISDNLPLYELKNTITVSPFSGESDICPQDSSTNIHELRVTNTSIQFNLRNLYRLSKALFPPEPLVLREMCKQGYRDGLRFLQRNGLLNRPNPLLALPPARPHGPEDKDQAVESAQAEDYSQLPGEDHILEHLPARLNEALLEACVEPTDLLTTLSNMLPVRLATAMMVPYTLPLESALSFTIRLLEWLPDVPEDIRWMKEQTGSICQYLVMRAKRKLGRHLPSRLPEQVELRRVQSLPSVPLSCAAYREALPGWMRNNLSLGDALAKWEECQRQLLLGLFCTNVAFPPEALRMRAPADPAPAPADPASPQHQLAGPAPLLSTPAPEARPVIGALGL

inhibition [1]	inhibition [2]	IC50 [3]	Compound
inactive	inactive	–	CN(C)C(=O)Nc1cccc(N(C)C)c1
–	inactive	–	CN(C)C(=O)Nc1ccc(-c2ccccc2)cc1
inactive	inactive	–	CN(C)C(=O)Nc1cccc(-c2cccc(N(C)C)c2)c1
inactive	inactive	–	CN(C)C(=O)Nc1ccc(-c2ccc(NC(=O)N(C)C)cc2)cc1
–	inactive	–	CN(C)C(=O)Nc1ccc(-c2ccc(N)cc2)cc1
inactive	inactive	–	CN(C)C(=O)Nc1ccc(-c2cccc(N(C)C)c2)cc1
inactive	inactive	–	CN(C)c1ccc(-c2ccccc2)cc1
inactive	inactive	–	CN(C)C(=O)Nc1ccc(-c2ccc(N(C)C)cc2)cc1
inactive	inactive	–	CN(C)c1cccc(-c2ccccc2)c1
Active	Active	–	CN(C)C(=O)Nc1cccc(-c2ccccc2)c1
inactive	inactive	–	CN(C)c1cccc(-c2cccc(N(C)C)c2)c1
inactive	inactive	–	CN(C)c1cccc(N(C)C)c1
–	inactive	–	CN(C)C(=O)Nc1ccc(N(C)C)cc1
inactive	inactive	–	CN(C)C(=O)Nc1cccc(-c2cccc(NC(=O)N(C)C)c2)c1
inactive	inactive	–	CN(C)C(=O)Nc1ccc(NC(=O)N(C)C)cc1
Active	–	700 nM	CN(C)C(=O)Nc1cccc(-c2ccc(N(C)C)cc2)c1

Compound	inhibition [1]	inhibition [2]	IC50 [3]
CN(C)c1ccc(N(C)C)cc1	inactive	inactive	–
CN(C)c1ccc(-c2ccc(N(C)C)cc2)cc1	inactive	inactive	–
